From the NIST ThermoML archive (doi:10.1021/je100407f)
“And” between values parts separate entries of the source, which are not always exact repeats. Equal entries are not always repeated. ± gives the expanded uncertainty stated by the source.

Details: 101 kPa, Liquid mixture 1, Ring tensiometer

| SMILES | interfacial tension (283.15 K) [mN/m] | interfacial tension (293.15 K) [mN/m] | interfacial tension (303.15 K) [mN/m] | interfacial tension (313.15 K) | interfacial tension (323.15 K) [mN/m] | interfacial tension (333.15 K) [mN/m] |
| --- | --- | --- | --- | --- | --- | --- |
| CCCCn1cc[n+](C)c1.F[P-](F)(F)(F)(F)F [1-butyl-3-methylimidazolium hexafluorophosphate] + CCCCCCC | 14.81 ± 0.32 | 14.69 ± 0.32 | 14.67 ± 0.32 | 14.59 ± 0.32 mN/m | 14.5 ± 0.32 | 14.41 ± 0.32 |
| CCCCCCCC[n+]1ccn(C)c1.F[P-](F)(F)(F)(F)F [1-octyl-3-methylimidazolium hexafluorophosphate] + CCCCCC | 4.89 ± 0.23 | 4.77 ± 0.23 | 4.66 ± 0.23 | 4.52 ± 0.22 mN/m | 4.45 ± 0.22 | 4.46 ± 0.22 |
| CCCCCn1cc[n+](C)c1.F[P-](F)(F)(F)(F)F [1-methyl-3-pentylimidazolium hexafluorophosphate] + CCCCCC | 12.37 ± 0.3 | 11.92 ± 0.29 |  | 12 ± 0.29 mN/m and 11.93 ± 0.29 mN/m | 11.78 ± 0.29 | 11.67 ± 0.29 |
| CCCCCn1cc[n+](C)c1.F[P-](F)(F)(F)(F)F [1-methyl-3-pentylimidazolium hexafluorophosphate] + CCCCCCC | 12.23 ± 0.3 | 12.12 ± 0.29 | 12.02 ± 0.29 | 11.9 ± 0.29 mN/m | 11.63 ± 0.29 | 11.53 ± 0.29 |
| CCCCCCn1cc[n+](C)c1.F[P-](F)(F)(F)(F)F [1-hexyl-3-methylimidazolium hexafluorophosphate] + CCCCCCC | 8.86 ± 0.26 | 8.74 ± 0.26 | 8.73 ± 0.26 | 8.69 ± 0.26 mN/m | 8.54 ± 0.26 | 8.47 ± 0.26 |
| CCCCCCn1cc[n+](C)c1.F[P-](F)(F)(F)(F)F [1-hexyl-3-methylimidazolium hexafluorophosphate] + CCCCCC | 9.01 ± 0.26 | 8.9 ± 0.26 | 8.83 ± 0.26 | 8.84 ± 0.26 mN/m | 8.73 ± 0.26 | 8.68 ± 0.26 |
